The values below are quoted from earlier work in patent publication US4168274A, “Production of a peracid and an oxirane” (priority 1975, dated 1979).

For this data set the following is noted: Table I, carboxylic acids and solvents, symbols .infin., v, s, δ.
`CCCCCC(=O)O` [caproic]: the solubility in water entry was “δ”.

Turning to `CCCl` [chloroethane], the solubility in water result is “δ”.

As for `CCCOCCC` [di n-propyl ether], the solubility in water entry was “δ”.

Turning to `CCOC(=O)CC` [ethyl propionate], the solubility in water entry is “δ”.

In the case of `CCCCCCC(=O)O` [n.heptoic], the solubility in water result is given as “δ”.

With `O=[N+]([O-])c1ccccc1` [nitrobenzene], the solubility in water entry is “δ”.

With `CC(Cl)CCl` (centres unmarked) [propylene dichloride], the solubility in water result is on record as “δ”.

`ClC(Cl)C(Cl)Cl` [tetrachloroethane]: the solubility in water entry is on record as “δ”.
